ChEMBL document CHEMBL1909046, “DrugMatrix in vitro pharmacology data”

What was measured:
[1] = DRUGMATRIX: Purinergic P2X radioligand binding (ligand: [3H] alpha, beta-Methylene-ATP); type: cell membranes, Oryctolagus cuniculus, New Zealand albino, Urinary bladder, Membrane; settings: Not Active = under 50% inhibition at 10 µM
[2] = DRUGMATRIX: GABAA, Chloride Channel, TBOB radioligand binding (ligand: [3H] TBOB); type: cell membranes, Rattus norvegicus, Wistar, Cerebral cortex, Membrane; settings: Not Active = under 50% inhibition at 10 µM
[3] = molecular target: T1, 3-hydroxy-3-methylglutaryl-coenzyme A reductase (Homo sapiens, UniProt P04035); parameters: species or system Escherichia coli;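 note: enzyme inhibition assay of HMG-CoA reductase using radiolabeled [14C]HMG-CoA as substrate; in other assays of this panel Not Active means under 50% inhibition at 10 µM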
T1 sequence (P04035 whole entry): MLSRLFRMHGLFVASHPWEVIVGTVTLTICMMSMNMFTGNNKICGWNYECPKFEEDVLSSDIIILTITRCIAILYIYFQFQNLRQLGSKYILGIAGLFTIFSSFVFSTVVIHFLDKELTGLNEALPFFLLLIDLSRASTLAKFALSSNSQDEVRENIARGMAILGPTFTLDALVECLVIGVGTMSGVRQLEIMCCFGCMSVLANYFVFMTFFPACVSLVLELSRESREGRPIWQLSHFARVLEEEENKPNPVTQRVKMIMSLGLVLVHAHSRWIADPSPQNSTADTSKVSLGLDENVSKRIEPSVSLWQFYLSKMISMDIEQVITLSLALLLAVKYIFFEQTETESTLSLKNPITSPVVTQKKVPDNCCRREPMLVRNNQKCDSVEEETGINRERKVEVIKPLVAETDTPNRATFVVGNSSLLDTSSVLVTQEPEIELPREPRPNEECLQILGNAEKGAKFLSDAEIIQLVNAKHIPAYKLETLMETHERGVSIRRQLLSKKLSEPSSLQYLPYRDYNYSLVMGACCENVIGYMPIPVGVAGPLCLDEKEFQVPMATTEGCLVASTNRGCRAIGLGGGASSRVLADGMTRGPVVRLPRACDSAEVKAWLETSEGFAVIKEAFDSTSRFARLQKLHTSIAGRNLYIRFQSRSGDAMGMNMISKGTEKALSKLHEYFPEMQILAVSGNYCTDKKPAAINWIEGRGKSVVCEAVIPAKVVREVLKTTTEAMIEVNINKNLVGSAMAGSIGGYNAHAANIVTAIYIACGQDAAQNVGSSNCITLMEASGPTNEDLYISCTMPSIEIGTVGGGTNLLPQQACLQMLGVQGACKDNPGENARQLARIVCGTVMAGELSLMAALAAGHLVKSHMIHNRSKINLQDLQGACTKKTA

[4] = molecular target: T2, Angiotensin-converting enzyme (Oryctolagus cuniculus, UniProt P12822); type: tissue-based, Lung;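 note: enzymatic inhibition of angiotensin-converting enzyme measured with FAPGG as the substrate; in other assays of this panel Not Active means under 50% inhibition at 10 µM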
T2 sequence (P12822 whole entry): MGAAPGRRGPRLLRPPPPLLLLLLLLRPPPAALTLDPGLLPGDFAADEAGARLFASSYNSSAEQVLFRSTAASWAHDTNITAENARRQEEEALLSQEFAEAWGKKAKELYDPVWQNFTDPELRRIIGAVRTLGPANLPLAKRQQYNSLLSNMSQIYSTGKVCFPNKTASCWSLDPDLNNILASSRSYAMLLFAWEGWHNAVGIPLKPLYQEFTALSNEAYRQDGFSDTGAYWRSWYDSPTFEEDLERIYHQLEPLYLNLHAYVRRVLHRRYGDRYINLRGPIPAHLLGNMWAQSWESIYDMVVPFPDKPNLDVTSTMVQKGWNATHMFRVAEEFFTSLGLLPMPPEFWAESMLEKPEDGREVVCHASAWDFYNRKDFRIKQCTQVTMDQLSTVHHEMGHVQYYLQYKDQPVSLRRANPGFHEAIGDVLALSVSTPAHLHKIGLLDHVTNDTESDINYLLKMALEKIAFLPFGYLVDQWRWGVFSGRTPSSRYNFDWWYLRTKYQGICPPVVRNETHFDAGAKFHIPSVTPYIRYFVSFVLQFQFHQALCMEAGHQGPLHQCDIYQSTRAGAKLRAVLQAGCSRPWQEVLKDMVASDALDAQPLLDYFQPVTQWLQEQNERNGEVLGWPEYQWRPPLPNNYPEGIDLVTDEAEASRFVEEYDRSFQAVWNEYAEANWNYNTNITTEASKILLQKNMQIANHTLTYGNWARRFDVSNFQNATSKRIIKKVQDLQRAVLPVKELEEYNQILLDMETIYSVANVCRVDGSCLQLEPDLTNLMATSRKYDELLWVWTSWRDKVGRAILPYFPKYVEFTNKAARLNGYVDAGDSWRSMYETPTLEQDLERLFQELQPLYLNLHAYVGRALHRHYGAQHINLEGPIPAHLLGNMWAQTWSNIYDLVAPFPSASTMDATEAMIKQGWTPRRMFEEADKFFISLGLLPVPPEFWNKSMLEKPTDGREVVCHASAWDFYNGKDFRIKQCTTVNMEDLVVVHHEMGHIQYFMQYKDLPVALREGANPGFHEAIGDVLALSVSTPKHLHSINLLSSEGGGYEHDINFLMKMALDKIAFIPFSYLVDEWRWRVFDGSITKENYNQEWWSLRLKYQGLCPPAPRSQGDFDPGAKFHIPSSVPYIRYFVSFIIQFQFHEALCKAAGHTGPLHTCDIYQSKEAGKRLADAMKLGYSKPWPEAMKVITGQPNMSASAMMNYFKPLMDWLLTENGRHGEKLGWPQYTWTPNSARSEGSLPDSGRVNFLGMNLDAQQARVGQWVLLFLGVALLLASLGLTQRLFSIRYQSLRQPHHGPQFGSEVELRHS

[5] = molecular target: Tyrosine-protein kinase Fyn (Homo sapiens, UniProt P06241); assay: biochemical; type: cell-based, Insect cells; settings: insect cells;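 note: enzymatic inhibition of Fyn kinase activity measured with Poly(Glu:Tyr) as the phosphorylation substrate; in other assays of this panel Not Active means under 50% inhibition at 10 µM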
Tyrosine-protein kinase Fyn, sequence (P06241 whole entry): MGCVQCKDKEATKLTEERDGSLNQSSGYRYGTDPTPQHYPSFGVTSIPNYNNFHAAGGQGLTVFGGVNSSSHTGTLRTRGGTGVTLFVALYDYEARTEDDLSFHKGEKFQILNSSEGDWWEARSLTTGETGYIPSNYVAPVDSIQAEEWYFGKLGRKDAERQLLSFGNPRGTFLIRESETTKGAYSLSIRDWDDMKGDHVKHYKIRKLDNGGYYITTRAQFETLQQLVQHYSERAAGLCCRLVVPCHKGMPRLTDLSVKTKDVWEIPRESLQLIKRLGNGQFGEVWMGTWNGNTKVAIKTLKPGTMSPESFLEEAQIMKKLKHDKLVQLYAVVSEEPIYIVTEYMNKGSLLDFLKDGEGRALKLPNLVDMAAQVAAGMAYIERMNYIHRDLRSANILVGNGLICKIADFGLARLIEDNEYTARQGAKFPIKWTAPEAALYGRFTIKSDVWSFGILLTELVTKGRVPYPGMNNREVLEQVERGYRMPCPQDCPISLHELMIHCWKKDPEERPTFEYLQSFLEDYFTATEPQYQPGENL

[6] = molecular target: Beta-3 adrenergic receptor (Homo sapiens, UniProt P13945); assay: DRUGMATRIX: Adrenergic beta3 radioligand binding (ligand: [125I] Cyanopindolol); type: cell membranes, HEK293, Membrane; settings: hek293; Not Active = under 50% inhibition at 10 µM
Beta-3 adrenergic receptor, sequence (P13945 whole entry): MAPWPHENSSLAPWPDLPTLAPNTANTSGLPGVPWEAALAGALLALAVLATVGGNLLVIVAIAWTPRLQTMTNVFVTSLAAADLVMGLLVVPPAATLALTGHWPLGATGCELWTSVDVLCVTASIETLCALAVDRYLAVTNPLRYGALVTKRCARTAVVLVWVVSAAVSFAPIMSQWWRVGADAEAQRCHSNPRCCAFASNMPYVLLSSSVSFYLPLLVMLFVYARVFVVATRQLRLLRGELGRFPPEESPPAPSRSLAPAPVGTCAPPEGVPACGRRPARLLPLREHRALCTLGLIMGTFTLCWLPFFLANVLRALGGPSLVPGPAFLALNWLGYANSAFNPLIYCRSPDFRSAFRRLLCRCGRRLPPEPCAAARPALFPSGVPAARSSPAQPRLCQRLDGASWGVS

Row | SMILES | IC50 [1] | Ki [1] | IC50 [2] | Ki [2] | IC50 [3] | IC50 [4] | IC50 [5] | IC50 [6] | IC50 ([3]; read-out: IC50)
1 | O=C/C=C/c1ccccc1 | Not Active | Not Active | Not Active | Not Active | Not Active | Not Active | Not Active | Not Active | –
2 | COc1ccc(C(=O)N2CCCC2=O)cc1 | Not Active | Not Active | Not Active | Not Active | Not Active | Not Active | Not Active | Not Active | –
3 | CC[C@H](C)[C@H]1O[C@]2(C=C[C@@H]1C)C[C@@H]1C[C@@H](C/C=C(\C)[C@@H](O[C@H]3C[C@H](OC)[C@@H](O[C@H]4C[C@H](OC)[C@@H](O)[C@H](C)O4)[C@H](C)O3)[C@@H](C)/C=C/C=C3\CO[C@@H]4[C@H](O)C(C)=C[C@@H](C(=O)O1)[C@]34O)O2.CO[C@H]1C[C@H](O[C@H]2[C@H](C)O[C@@H](O[C@@H]3/C(C)=C/C[C@@H]4C[C@@H](C[C@]5(C=C[C@H](C)[C@@H](C(C)C)O5)O4)OC(=O)[C@@H]4C=C(C)[C@@H](O)[C@H]5OC/C(=C\C=C\[C@@H]3C)[C@]54O)C[C@@H]2OC)O[C@@H](C)[C@@H]1O [ABAMECTIN] | Not Active | Not Active | Not Active | Not Active | Not Active | Not Active | Not Active | Not Active | –
4 | Cn1c(=O)c2[nH]cnc2n(C)c1=O.Cn1c(=O)c2[nH]cnc2n(C)c1=O.NCCN [AMINOPHYLLINE] | Not Active | Not Active | Not Active | Not Active | Not Active | Not Active | Not Active | Not Active | –
5 | CC1(C)S[C@@H]2[C@H](NC(=O)[C@H](N)c3ccccc3)C(=O)N2[C@H]1C(=O)O [AMPICILLIN] | Not Active | Not Active | Not Active | Not Active | Not Active | Not Active | Not Active | Not Active | –
6 | COc1ccc2cc3[n+](cc2c1OC)CCc1cc2c(cc1-3)OCO2.[Cl-] [BERBERINE CHLORIDE] | Not Active | Not Active | Not Active | Not Active | Not Active | Not Active | Not Active | Not Active | –
7 | O=C(O)CCNC(=O)c1ccccc1 [BETAMIPRON] | Not Active | Not Active | Not Active | Not Active | Not Active | Not Active | Not Active | Not Active | –
8 | COc1cc(N)c(Cl)cc1C(=O)NC1CCN(CCCOc2ccc(F)cc2)CC1OC (stereo not given) [CISAPRIDE] | Not Active | Not Active | Not Active | Not Active | – | Not Active | Not Active | Not Active | 3.37 µM
9 | Nc1ccn([C@@H]2O[C@H](CO)[C@@H](O)[C@@H]2O)c(=O)n1 [CYTARABINE] | Not Active | Not Active | Not Active | Not Active | Not Active | Not Active | Not Active | Not Active | –
10 | C[C@@H]1C[C@H]2[C@@H]3CCC4=CC(=O)C=C[C@]4(C)[C@@]3(F)[C@@H](O)C[C@]2(C)[C@@]1(O)C(=O)CO [DEXAMETHASONE] | Not Active | Not Active | Not Active | Not Active | Not Active | Not Active | Not Active | Not Active | –
11 | CN(C)CC[C@@H](c1ccc(Cl)cc1)c1ccccn1 [DEXCHLORPHENIRAMINE] | Not Active | Not Active | Not Active | Not Active | Not Active | Not Active | Not Active | Not Active | –
12 | OC(CCCN1CCCCC1)(c1ccccc1)c1ccccc1 [DIPHENIDOL] | Not Active | Not Active | Not Active | Not Active | Not Active | Not Active | Not Active | Not Active | –
13 | CC[C@H]1CN2CCc3cc(OC)c(OC)cc3[C@@H]2C[C@@H]1C[C@H]1NCCc2cc(OC)c(OC)cc21 [EMETINE] | Not Active | Not Active | Not Active | Not Active | Not Active | Not Active | Not Active | Not Active | –
14 | CCC1(C)CC(=O)NC1=O (stereo not given) [ETHOSUXIMIDE] | Not Active | Not Active | Not Active | Not Active | Not Active | Not Active | Not Active | Not Active | –
15 | C=CCc1ccc(O)c(OC)c1 [EUGENOL] | Not Active | Not Active | Not Active | Not Active | Not Active | Not Active | Not Active | Not Active | –
16 | CC(C)(C)NC(=O)[C@H]1CC[C@H]2[C@@H]3CC[C@H]4NC(=O)C=C[C@]4(C)[C@H]3CC[C@]12C [FINASTERIDE] | Not Active | Not Active | Not Active | Not Active | Not Active | Not Active | Not Active | Not Active | –
17 | CC(C)=CCC/C(C)=C/CO [GERANIOL] | Not Active | Not Active | Not Active | Not Active | Not Active | Not Active | Not Active | Not Active | –
18 | N=C(N)NC(=O)Cc1c(Cl)cccc1Cl [GUANFACINE] | Not Active | Not Active | Not Active | Not Active | Not Active | Not Active | Not Active | Not Active | –
19 | NNc1nncc2ccccc12 [HYDRALAZINE] | Not Active | Not Active | Not Active | Not Active | Not Active | Not Active | Not Active | Not Active | –
20 | C#CC1(O)CC[C@H]2[C@@H]3CCC4=CC(=O)CC[C@@H]4[C@H]3CC[C@@]21CC (stereo not given in full) [NORGESTREL] | Not Active | Not Active | Not Active | Not Active | Not Active | Not Active | Not Active | Not Active | –
